“Also recorded” adds a separate entry of the source.

For series [1], the system named is bleomycin-induced fibrosis in mice. Description: Bleomycin-induced lung fibrosis model in mice (hydroxyproline, collagen, qRT-PCR of fibrotic genes, Masson trichrome). The format is in vivo. On the technique in general: Real-time PCR tracks product formation cycle by cycle.
Series [2] can be described thus: T3 and TSH level in the sera of treated bleomycin mice (ELISA). Type of series: in vivo. Background: In an ELISA, binding on a coated surface is turned into a signal by an enzyme label.
The test system of series [3] is bleomycin-induced mortality. In words: Bleomycin-induced mortality by Kaplan-Meier survival curve analysis. The format is in vivo, mice. The settings on record: bleomycin 4.5 U/kg intratracheally day 0; T3 40 μg/kg nebulized and inhaled every other day since day 7 (FIG. 5F). How it is done: 40 μg/kg of T3 was nebulized and inhaled day 10, 12, 14, 16 after bleomycin treatment at dose of 1.5 U/kg, Saline as control. Mice were sacrificed at day 21. […] FIG. 5B: Col1a1 mRNA expression was detected by QRT-PCR (n=8 in each group). FIG. 5C: Col3a1 mRNA expression was detected by QRT-PCR. […] FIG. 5F: Bleomycin-induced mortality by Kaplan-Meier survival curve analysis. 4.5 U/kg of bleomycin was delivered intratracheally at day 0, 40 μg/kg of T3 was nebulized and inhaled every other day since day 7, saline treatment as control group.

The test system of series [4] is alveolar epithelial cells isolated from bleomycin injured lungs. Description: Gene expression analysis in alveolar epithelial cells isolated from bleomycin injured lungs before and after T3 aerosolized delivery. The format is in vivo. An excerpt:
Experiments were run to delineate a potential mechanistic pathway through which thyroid hormones exert their protective role in the development and progression of experimental lung fibrosis. […] Similar experiments were run in A549 lung adenocarcinoma cell lines before and after thyroid hormone administration.

Where [5] appears, read: treatment injected at day 3 after bleomycin, sacrificed day 14 (FIG. 4A).
Setting [6] is: treatment injected at day 7 after bleomycin, sacrificed day 14 (FIG. 4C).

As to `CCCc1cc(=O)[nH]c(=S)[nH]1` [PTU, propylthiouracil], the “Bleomycin-induced lung fibrosis (overall severity)” value in series [1] (bleomycin 1.5 U/Kg intratracheally, PTU 100 mg/kg intraperitoneally at day 3 and day 7, sacrificed day 14) is reported as “more severe bleomycin-induced lung fibrosis; also recorded: aggravates fibrosis”. Further, the “Hydroxyproline content in the right lungs” value in series [1] (bleomycin 1.5 U/Kg, PTU 100 mg/kg intraperitoneally day 3 and day 7, day 14 (FIG. 3A)) is “significant elevation”. The “Collagen content in the right lungs” value in series [1] (bleomycin 1.5 U/Kg, PTU 100 mg/kg intraperitoneally day 3 and day 7, day 14 (FIG. 3B)) is on record as “significant elevation”. The Hydroxyproline measurements result in series [1] (setting [5]) and in series [1] (setting [6]) was “significant increase” each time.
Regarding `N[C@@H](Cc1cc(I)c(Oc2ccc(O)c(I)c2)c(I)c1)C(=O)O` [T3, (S)-2-amino-3-[4-(4-hydroxy-3-iodophenoxy)-3,5-diiodophenyl]propanoic acid], the “T3 level in the sera by ELISA” value in series [2] (after T3 inhalation 40 μg/kg in bleomycin mice, n=10 (FIG. 5D)) is recorded as “does not affect the level of T3”. In series [1] (T3 40 μg/kg nebulized and inhaled day 10, 12, 14, 16 after bleomycin 1.5 U/kg, sacrificed day 21), the “Bleomycin-induced fibrosis (overall)” value is “blunts bleomycin-induced fibrosis”. The Hydroxyproline content result in series [1] (T3 inhalation 40 μg/kg day 10, 12, 14, 16 after bleomycin 1.5 U/kg, day 21 (FIG. 5A)) was “statistically significant blunting; also recorded: declines hydroxyproline content”. Further, the “Survival / bleomycin-induced mortality (Kaplan-Meier)” value in series [3] is on record as “significant increase in survival; also recorded: reduces mortality”. Besides, in series [4], the “Gene expression in alveolar epithelial cells” value is given as “upregulation of several anti-apoptotic genes”.
As to `N[C@@H](Cc1cc(I)c(Oc2cc(I)c(O)c(I)c2)c(I)c1)C(=O)O` [T4, (S)-2-amino-3-[4-(4-hydroxy-3,5-diiodophenoxy)-3,5-diiodophenyl]propanoic acid], in series [2] (after T4 systemic administration in bleomycin mice, n=10, p<0.05 (FIG. 4E)), the “Circulating levels of T3” value was “statistically significant increase”. In series [1] (T4 after bleomycin instillation, intraperitoneal, 40 mg/kg or 50 mg/kg, sacrificed day 14), the “Pulmonary fibrosis / fibrotic process (fibrotic markers and structural changes)” value is “significant attenuation of the fibrotic process; also recorded: attenuates the pulmonary fibrosis”. Moreover, the “Gene expressions of Col1a1, Col3a1, S100a4 and Acta2 (QRT-PCR)” value is listed as “markedly suppresses” in series [1] (T4 injected at day 3 after bleomycin, n=8, p<0.05 (FIG. 4B)) and “significantly suppresses” in series [1] (T4 injected at day 7 after bleomycin, n=8, p<0.05 (FIG. 4D)). The “Fibrotic and inflammatory response to bleomycin, histological examination by masson trichrome staining” value in series [1] (T4 treatment at either day 3 or day 7 (FIG. 4G)) was “attenuated”. Also, the Hydroxyproline measurements result in series [1] (setting [5]) and in series [1] (setting [6]) was “no statistically significant reduction; also recorded: no statistical difference in the T4 treated group from the saline group” in each case.
